Test results: ChEMBL document CHEMBL6177998, “Rational Design of Dual Degraders by Incorporating Molecular Glue Structural Features into PROTAC Degraders” (J Med Chem, 2025)
Activity calls are given as the source filed them. No cut-off for these calls is given here.

Columns and labels:
[1] = molecular target: T1, Protein cereblon/Androgen receptor (Homo sapiens, UniProt P10275+Q96SW2); assay: PROTAC activity at CRBN/AR in human 22Rv1 cells assessed as decrease in PSA mRNA level at 1 to 3 nM incubated for 24 hrs by qRT-PCR analysis; format: cell-based; conditions: dose 1-3 nM
Target sequence in this assay (P10275 whole entry, looked up): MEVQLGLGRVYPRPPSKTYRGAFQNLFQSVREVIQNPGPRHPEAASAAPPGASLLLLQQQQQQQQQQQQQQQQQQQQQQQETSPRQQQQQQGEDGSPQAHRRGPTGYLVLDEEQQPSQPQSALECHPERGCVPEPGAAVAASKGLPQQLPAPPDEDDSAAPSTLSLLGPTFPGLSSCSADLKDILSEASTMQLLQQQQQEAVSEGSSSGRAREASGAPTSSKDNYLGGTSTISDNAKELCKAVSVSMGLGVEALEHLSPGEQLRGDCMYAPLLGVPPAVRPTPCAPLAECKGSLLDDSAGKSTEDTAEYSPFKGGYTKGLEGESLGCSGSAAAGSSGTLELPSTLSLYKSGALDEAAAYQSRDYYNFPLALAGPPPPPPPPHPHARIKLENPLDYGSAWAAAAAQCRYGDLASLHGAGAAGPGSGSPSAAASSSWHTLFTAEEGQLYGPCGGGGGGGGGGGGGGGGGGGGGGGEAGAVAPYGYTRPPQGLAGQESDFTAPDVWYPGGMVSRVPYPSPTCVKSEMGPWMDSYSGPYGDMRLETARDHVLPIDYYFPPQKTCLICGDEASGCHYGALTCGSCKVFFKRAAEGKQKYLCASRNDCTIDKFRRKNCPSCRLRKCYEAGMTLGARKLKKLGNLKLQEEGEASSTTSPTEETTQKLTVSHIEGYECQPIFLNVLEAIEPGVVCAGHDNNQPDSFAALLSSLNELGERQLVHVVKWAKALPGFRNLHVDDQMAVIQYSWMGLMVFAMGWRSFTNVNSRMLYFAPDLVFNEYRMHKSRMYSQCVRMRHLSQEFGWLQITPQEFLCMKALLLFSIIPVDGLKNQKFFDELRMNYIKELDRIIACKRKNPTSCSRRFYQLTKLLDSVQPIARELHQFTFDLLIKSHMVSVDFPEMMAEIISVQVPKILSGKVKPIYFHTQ
Target sequence in this assay (Q96SW2 whole entry, looked up): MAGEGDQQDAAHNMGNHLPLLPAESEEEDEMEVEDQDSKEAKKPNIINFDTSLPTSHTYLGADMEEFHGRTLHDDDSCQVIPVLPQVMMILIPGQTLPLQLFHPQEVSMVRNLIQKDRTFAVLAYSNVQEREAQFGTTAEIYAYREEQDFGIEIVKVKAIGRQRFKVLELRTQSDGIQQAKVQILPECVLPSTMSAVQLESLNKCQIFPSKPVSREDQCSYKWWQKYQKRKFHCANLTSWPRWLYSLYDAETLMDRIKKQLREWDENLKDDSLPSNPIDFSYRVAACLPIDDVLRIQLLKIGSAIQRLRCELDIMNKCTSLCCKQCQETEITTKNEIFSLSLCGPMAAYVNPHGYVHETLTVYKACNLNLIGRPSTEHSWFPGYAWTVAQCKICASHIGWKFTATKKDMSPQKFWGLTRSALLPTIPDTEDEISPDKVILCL

[2] = molecular target: T1, Protein cereblon/Androgen receptor; assay: PROTAC activity at CRBN/AR in human LNCaP cells assessed as decrease in PSA mRNA level at 10 to 100 nM incubated for 24 hrs by qRT-PCR analysis; format: cell-based; conditions: dose 10-100 nM
Target sequence in this assay (P10275 whole entry, looked up): as the sequence (P10275 whole entry, looked up) above
Target sequence in this assay (Q96SW2 whole entry, looked up): as the sequence (Q96SW2 whole entry, looked up) above

[3] = molecular target: T1, Protein cereblon/Androgen receptor; assay: PROTAC activity at CRBN/AR in human VCaP cells assessed as induction of AR degradation at 0.01 uM incubated for 24 hrs by Western blot analysis relative to control; format: cell-based
Target sequence in this assay (P10275 whole entry, looked up): as the sequence (P10275 whole entry, looked up) above
Target sequence in this assay (Q96SW2 whole entry, looked up): as the sequence (Q96SW2 whole entry, looked up) above

[4] = molecular target: T2, Protein cereblon/Eukaryotic peptide chain release factor GTP-binding subunit ERF3A (Homo sapiens, UniProt Q96SW2+P15170); assay: In vivo molecular glue activity at CRBN/GSPT1 in male NOD SCID mouse model xenografted with human LNCaP cells assessed as reduction in GSPT1 level in tumor at 20 mg/kg, po administered daily for 26 days by Western blot analysis; format: functional, organism-based; conditions: time 26.0 day
Target sequence in this assay (P15170 whole entry, looked up): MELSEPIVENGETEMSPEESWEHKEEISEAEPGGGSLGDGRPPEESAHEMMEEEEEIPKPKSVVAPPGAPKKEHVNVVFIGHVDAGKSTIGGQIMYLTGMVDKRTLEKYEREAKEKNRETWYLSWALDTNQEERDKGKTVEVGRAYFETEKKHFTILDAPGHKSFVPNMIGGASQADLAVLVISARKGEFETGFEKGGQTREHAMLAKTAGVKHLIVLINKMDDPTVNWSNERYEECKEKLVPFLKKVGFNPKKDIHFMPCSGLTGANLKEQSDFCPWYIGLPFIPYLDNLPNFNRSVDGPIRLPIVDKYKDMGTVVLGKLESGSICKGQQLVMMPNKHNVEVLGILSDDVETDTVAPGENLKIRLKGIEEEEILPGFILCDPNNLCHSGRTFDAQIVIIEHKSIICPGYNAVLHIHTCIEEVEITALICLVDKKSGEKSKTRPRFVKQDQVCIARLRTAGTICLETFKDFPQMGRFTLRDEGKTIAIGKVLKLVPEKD
Target sequence in this assay (Q96SW2 whole entry, looked up): as the sequence (Q96SW2 whole entry, looked up) above

[5] = molecular target: T1, Protein cereblon/Androgen receptor; assay: PROTAC activity at CRBN/AR in human VCaP cells assessed as induction of AR degradation by measuring maximal efficacy incubated for 24 hrs by Western blot analysis relative to control; format: cell-based
Target sequence in this assay (P10275 whole entry, looked up): as the sequence (P10275 whole entry, looked up) above
Target sequence in this assay (Q96SW2 whole entry, looked up): as the sequence (Q96SW2 whole entry, looked up) above

[6] = molecular target: T1, Protein cereblon/Androgen receptor; assay: PROTAC activity at CRBN/AR in human 22Rv1 cells assessed as induction of AR degradation at 20 nM incubated for 36 hrs by Western blot analysis (reference value: 0 %); format: cell-based
Target sequence in this assay (P10275 whole entry, looked up): as the sequence (P10275 whole entry, looked up) above
Target sequence in this assay (Q96SW2 whole entry, looked up): as the sequence (Q96SW2 whole entry, looked up) above

[7] = Inhibition of AR W741L mutant (unknown origin) transcriptional activity transfected in HEK293T cells co-transfected with PSA-luciferase reporter and pRL-TK assessed as reduction in PSA-luciferase activity incubated for 24 hrs by luminescence based microplate reader analysis; format: cell-based, Homo sapiens
[8] = molecular target: T2, Protein cereblon/Eukaryotic peptide chain release factor GTP-binding subunit ERF3A; assay: Molecular glue activity at CRBN/GSPT1 in human 22Rv1 cells assessed as induction of GSPT1 degradation at 0.01 uM incubated for 24 hrs by Western blot analysis relative to control; format: cell-based
Target sequence in this assay (P15170 whole entry, looked up): as the sequence (P15170 whole entry, looked up) above
Target sequence in this assay (Q96SW2 whole entry, looked up): as the sequence (Q96SW2 whole entry, looked up) above

CWR22R [9] = assay: Downregulation of GTPBP6 gene expression in human 22Rv1 cells at 3 nM incubated for 24 hrs by Volcano plot analysis; format: functional, cell-based
[10] = Cytotoxicity against human THLE-2 cells assessed as cell growth inhibition incubated for 72 hrs by Celltiter-lumi luminescent cell viability assay; format: toxicity, cell-based
CWR22R [11] = assay: Cell cycle arrest in human 22Rv1 cells assessed as accumulation of cells at G1 phase at 10 nM incubated for 24 hrs by flow cytometric analysis (reference value: 49.7 %); format: functional
[12] = molecular target: T2, Protein cereblon/Eukaryotic peptide chain release factor GTP-binding subunit ERF3A; assay: Molecular glue activity at CRBN/GSPT1 in human 22Rv1 cells assessed as induction of GSPT1 degradation at 20 nM incubated for 36 hrs by Western blot analysis (reference value: 0 %); format: cell-based
Target sequence in this assay (P15170 whole entry, looked up): as the sequence (P15170 whole entry, looked up) above
Target sequence in this assay (Q96SW2 whole entry, looked up): as the sequence (Q96SW2 whole entry, looked up) above

[13] = molecular target: T2, Protein cereblon/Eukaryotic peptide chain release factor GTP-binding subunit ERF3A; assay: Molecular glue activity at CRBN/GSPT1 in human VCaP cells assessed as induction of GSPT1 degradation by measuring maximal efficacy incubated for 24 hrs by Western blot analysis relative to control; format: cell-based
Target sequence in this assay (P15170 whole entry, looked up): as the sequence (P15170 whole entry, looked up) above
Target sequence in this assay (Q96SW2 whole entry, looked up): as the sequence (Q96SW2 whole entry, looked up) above

[14] = test system: Protein cereblon/Androgen receptor (Homo sapiens), P10275+Q96SW2 [UNDEFINED MUTATION]; assay: PROTAC activity at CRBN/Androgen receptor splice variant 7 in human VCaP cells assessed as induction of AR-V7 degradation at 20 nM by Western blot analysis; format: cell-based; conditions: time 1-36 hrs
Chain of Protein cereblon/Androgen receptor (Homo sapiens), P10275+Q96SW2 [UNDEFINED MUTATION] (P10275 whole entry, looked up, change not shown, canonical isoform): as the sequence (P10275 whole entry, looked up) above
Chain of Protein cereblon/Androgen receptor (Homo sapiens), P10275+Q96SW2 [UNDEFINED MUTATION] (Q96SW2 whole entry, looked up, change not shown, canonical isoform): as the sequence (Q96SW2 whole entry, looked up) above

LNCaP = assay: Induction of apoptosis in human LNCaP cells assessed as increase in cleaved caspase-3 expression incubated for 24 hrs by Western blot analysis; format: functional, cell-based; conditions: dose 1-100 nM
CWR22R [15] = assay: Cell cycle arrest in human 22Rv1 cells assessed as accumulation of cells at G1 phase at 30 nM incubated for 24 hrs by flow cytometric analysis (reference value: 49.7 %); format: functional
[16] = molecular target: T2, Protein cereblon/Eukaryotic peptide chain release factor GTP-binding subunit ERF3A; assay: Molecular glue activity at CRBN/GSPT1 in human 22Rv1 cells assessed as induction of GSPT1 degradation incubated for 24 hrs by Western blot analysis; format: cell-based
[17] = test system: Protein cereblon/Androgen receptor (Homo sapiens), P10275+Q96SW2 [UNDEFINED MUTATION]; assay: (§1) PROTAC activity at CRBN/Androgen receptor splice variant 7 in human VCaP cells assessed as induction of AR-V7 degradation incubated for 24 hrs by Western blot analysis; format: cell-based
[18] = molecular target: T1, Protein cereblon/Androgen receptor; assay: as §1; format: cell-based
[19] = molecular target: T1, Protein cereblon/Androgen receptor; assay: PROTAC activity at CRBN/AR in human LNCaP cells assessed as decrease in TMPRSS2 protein level incubated for 24 hrs by Western blot analysis; format: cell-based; conditions: dose 1-100 nM
Target sequence in this assay (P10275 whole entry, looked up): as the sequence (P10275 whole entry, looked up) above
Target sequence in this assay (Q96SW2 whole entry, looked up): as the sequence (Q96SW2 whole entry, looked up) above

VCaP = assay: Antiproliferative activity against AR-dependent human VCaP cells assessed as cell growth inhibition incubated for 72 hrs by Celltiter-lumi luminescent cell viability assay; format: functional, cell-based
[20] = molecular target: T1, Protein cereblon/Androgen receptor; assay: PROTAC activity at CRBN/AR in human VCaP cells assessed as induction of AR degradation at 50 nM preincubated with MLN4924 followed by compound addition and measured after 12 hrs by Western blot analysis; format: cell-based
[21] = molecular target: T2, Protein cereblon/Eukaryotic peptide chain release factor GTP-binding subunit ERF3A; assay: Molecular glue activity at CRBN/GSPT1 in human 22Rv1 cells assessed as induction of GSPT1 degradation at 20 nM incubated for 12 hrs by Western blot analysis (reference value: 0 %); format: cell-based
Target sequence in this assay (P15170 whole entry, looked up): as the sequence (P15170 whole entry, looked up) above
Target sequence in this assay (Q96SW2 whole entry, looked up): as the sequence (Q96SW2 whole entry, looked up) above

[22] = test system: Protein cereblon/Androgen receptor (Homo sapiens), P10275+Q96SW2 [UNDEFINED MUTATION]; assay: PROTAC activity at CRBN/Androgen receptor splice variant 7 in human VCaP cells assessed as induction of AR-V7 degradation by measuring maximal efficacy incubated for 24 hrs by Western blot analysis relative to control; format: cell-based
[23] = molecular target: T1, Protein cereblon/Androgen receptor; assay: PROTAC activity at CRBN/AR in human 22Rv1 cells assessed as induction of AR degradation at 50 nM preincubated with MLN4924 followed by compound addition and measured after 12 hrs by Western blot analysis; format: cell-based
[24] = molecular target: T1, Protein cereblon/Androgen receptor; assay: PROTAC activity at CRBN/AR in human VCaP cells assessed as induction of AR degradation incubated for 24 hrs by Western blot analysis; format: cell-based
[25] = test system: Protein cereblon/Androgen receptor (Homo sapiens), P10275+Q96SW2 [UNDEFINED MUTATION]; assay: PROTAC activity at CRBN/Androgen receptor splice variant 7 in human 22Rv1 cells assessed as induction of AR-V7 degradation at 20 uM preincubated with EPI-002 for 4 hrs followed by compound addition and measured after 36 hrs by Western blot analysis; format: cell-based
[26] = molecular target: T2, Protein cereblon/Eukaryotic peptide chain release factor GTP-binding subunit ERF3A; assay: Molecular glue activity at CRBN/GSPT1 in human Enzalutamide-resistant VCaP cells assessed as induction of GSPT1 degradation at 1 to 300 nM by Western blot analysis; format: cell-based; conditions: dose 1-300 nM
Target sequence in this assay (P15170 whole entry, looked up): as the sequence (P15170 whole entry, looked up) above
Target sequence in this assay (Q96SW2 whole entry, looked up): as the sequence (Q96SW2 whole entry, looked up) above

[27] = molecular target: Protein cereblon/Zinc finger protein Helios (Homo sapiens) (UniProt Q96SW2+Q9UKS7); assay: Molecular glue activity at CRBN/IKZF2 in human 22Rv1 cells assessed as induction of IKZF2 degradation at 1 uM incubated for 6 hrs by Western blot analysis; format: cell-based

For COc1ccc(C(C)(C)c2cc(Cl)c(OCC3CCN(C(=O)CCCCCNc4ccc5c(c4)C(=O)N(C4CCC(=O)NC4=O)C5=O)CC3)c(C#N)c2)cc1 (stereo unspecified), the Activity [1] was “Active”, the Activity [2] was “Active” and the Activity [3] was 89.4%. For the same molecule, the Activity [4] was “Active”, the Emax [5] was 82.5% and the Activity [6] was 92.1%. The IC50 [7] was 62.3 nM, the Activity [8] was 93.9% and the Activity (CWR22R [9]) was “Active”. It also gave an IC50 at 72 h [10] of over 10000 nM, an Activity (CWR22R [11]) of 58.9% and an Activity [12] of 98.5%. For the same molecule, the Emax [13] was 96%, the Activity [14] was “Time-dependent-effect” and the Activity (LNCaP) was “Dose-dependent-effect”. The Activity (CWR22R [15]) was 74.6%, the Activity [16] was “Dose-dependent-effect” and the DC50 [16] was 1.2 nM. The Activity [17] was “Dose-dependent-effect”, the DC50 [18] was 2.5 nM and the Activity [19] was “Dose-dependent-effect”. The IC50 (VCaP) was 1.5 nM, the Activity [20] was “inactive” and the Activity [21] was 98.7%. The Emax [22] was 77.9%, the Activity [23] was “inactive” and the Activity [24] was “Dose-dependent-effect”. For the same molecule, the DC50 [24] was 2 nM, the Activity [25] was “inactive” and the Activity [26] was “Active”. For the same molecule, the Activity [27] was “inactive”.
